Reference: US9073858B2, “Methods of targeted drug development” (priority 2010, dated 2015)
“And” between values parts separate entries of the source, which are not always exact repeats. Identical values can stand only once. Like-named read-outs stand apart in the source and are kept apart here.

Columns and labels:
A549 cells = experiment: A549 Cell Proliferation Assay (MTT); format: cell-based; settings: Homo sapiens
Experimental: Cell proliferation is determined using the MTT assay. The MTT cell proliferation assay is a colorimetric assay system which measures the reduction of a tetrazolium component (MTT) into an insoluble formazan product by the mitochondria of viable cells. After incubation of the cells with the MTT reagent, DMSO is added to solubilize the colored crystals and the samples read at a wavelength of 560 nm. The amount of color produced is directly proportional to the number of viable cells. […] L11939) was prepared at 5 mg/ml in PBS. […] Plates were read on the PolarStar plate reader at 560 nm. […] IC50 values were calculated in GraphPad Prism using non-linear regression curve fitting. All statistical analyses was done either in GraphPad Prism or Microsoft Excel. […] Briefly, compounds are added to cells plated in 96-well plates. The cells are allowed to grow for 72 hours before MTT treatment. The effect of the compounds on cell proliferation is analyzed using GraphPad Prism. A549 cells are a non-small cell lung cancer cell line that have wild type EGFR and p53 but have point mutations in KRAS gene which transform it into an oncogene. […] SH30071.03, lot no. ATB31500), 1% Pen Strep (Gibco, cat no. […] On day 2, working solutions of compounds at 200× were prepared. […] Plates were incubated for 72 hours before analyzing them with MTT (as described above).

H1975 cells = experiment: H1975 Cell Proliferation Assay (MTT); format: cell-based; settings: Homo sapiens, read-out: IC50 Value (μM) H1975 Cells
Experimental: (§1) Cell proliferation is determined using the MTT assay. The MTT cell proliferation assay is a colorimetric assay system which measures the reduction of a tetrazolium component (MTT) into an insoluble formazan product by the mitochondria of viable cells. After incubation of the cells with the MTT reagent, DMSO is added to solubilize the colored crystals and the samples read at a wavelength of 560 nm. The amount of color produced is directly proportional to the number of viable cells.
(§2) 3-(4,5-Dimethylthiazol-2-yl)-2,5-diphenyltetrazolium Bromide (MTT) dye (Aesar, cat no. L11939) was prepared at 5 mg/ml in PBS. To each well, 20 μl of MTT solution was added to existing media and mixed thoroughly with 5 mins of gentle shaking at room temperature. Plates were incubated at 37° C., 5% CO2 for approximately 2 hrs. After 2-3 hrs incubation, media was aspirated out and plates were patted dry. […] Plates were incubated at 37° C., 5% CO2 for 10 min and mix thoroughly with 5 mins of gentle shaking at room temperature. Plates were read on the PolarStar plate reader at 560 nm. Percent (%) inhibition was calculated as 100%−(OD560 nm experimental-blank)×100%/OD560 nm control-blank. Blank=wells+serum free media+0.5% DMSO. Experimental=wells+cells+treatment+0.5% DMSO. Control=wells+cells+0.5% DMSO. IC50 values were calculated in GraphPad Prism using non-linear regression curve fitting. All statistical analyses was done either in GraphPad Prism or Microsoft Excel.
Briefly, compounds are added to cells plated in 96-well plates. The cells are allowed to grow for 72 hours before MTT treatment. The effect of the compounds on cell proliferation is analyzed using GraphPad Prism.

[1] = Stability on incubation with mouse liver microsomes (MLM); format: in vitro ADME; settings: percentage left after incubation with mouse liver microsomes for 30 minutes
Experimental: (§3) Stability of hydroxyquinoline analogs were determined (see e.g., TABLE 18). MLM represents the percentage left after incubation with mouse liver microsomes for 30 minutes. HLM represents the percentage left after incubation with human liver microsomes for 30 minutes.
(§4) Stability of analogs having a benzaldehyde derived ring were determined (see e.g., TABLE 18). MLM represents the percentage left after incubation with mouse liver microsomes for 30 minutes. HLM represents the percentage left after incubation with human liver microsomes for 30 minutes.

[2] = Stability on incubation with human liver microsomes (HLM); format: in vitro ADME; settings: percentage left after incubation with human liver microsomes for 30 minutes
Experimental: as §3, §4

HT-29 cells = experiment: HT-29 Cell Proliferation Assay (MTT); format: cell-based
Experimental: as §1, §2
Briefly, compounds are added to cells plated in 96-well plates. […] The effect of the compounds on cell proliferation is analyzed using GraphPad Prism.
HT-29 cells are a colon cancer cell line that is utilized to assess the ability of compounds to inhibit the proliferation of cells in tumors of the colon.
For the HT-29 cell proliferation assay, on day 1, HT-29 cells are seeded at 3,000 cells/well in 100 μl media containing 10% FBS, 1× Pen-Strep, and 1× L-Glutamine in 96 well, tissue culture-treated plates. […] Working solutions of compounds were prepared (at […] in 100% DMSO). To 200 μl media, 20 μl of a 5× compound (diluted in plain media) was added for a final DMSO concentration of 0.5%. […] On day 5, plates were analyzed for cell growth using the MTT assay.

[3] = A549, 72 h, read-out: IC50 Value (μM) A549 Cells
[4] = A549, MTT, 72 hours, read-out: IC50 Value (μM) A549 Cells
[5] = Homo sapiens, HT-29, MTT, 72 hrs, read-out: IC50 Value (μM) HT-29 Cells
[6] = Homo sapiens, HT-29, 72 h, read-out: IC50 Value (μM) HT-29 Cells
[7] = A549, read-out: IC50, cell proliferation in A549 or H1975 cells

Row | Structure (SMILES) | IC50 (A549 cells; [3]) [µM] | IC50 (H1975 cells; NCI-H1975, 72 h) [µM] | IC50 (HT-29 cells; [6]) [µM] | further results
1 | Oc1c(C(Nc2ccc(C(F)(F)F)cn2)c2ccc(C(F)(F)F)cc2)ccc2cccnc12 (centres unmarked) [AD4-13028] | 0.14 | 0.26 |  | 
2 | Oc1c(C(Nc2ccc(C(F)(F)F)cn2)c2ccc(Cl)c(Cl)c2)ccc2cccnc12 (centres unmarked) [AD4-13030] | 0.17 | 0.22 |  | 
3 | Oc1c(C(Nc2ccc(C(F)(F)F)cn2)c2ccc(C(F)(F)F)cc2F)ccc2cccnc12 (centres unmarked) [AD4-13031] | 0.12 | 0.24 |  | MLM % Remaining@ 30 Min [1]: 87%; HLM % Remaining@ 30 Min [2]: 93%
4 | Oc1c(C(Nc2ccc(C(F)(F)F)cn2)c2ccc(Cl)c(C(F)(F)F)c2)ccc2cccnc12 (centres unmarked) [AD4-13032] | 0.17 | 0.21 |  | 
5 | Oc1c(C(Nc2ccc(C(F)(F)F)cn2)c2ccc(Cl)cc2Cl)ccc2cccnc12 (centres unmarked) [AD4-13033] | 0.13 | 0.23 |  | MLM % Remaining@ 30 Min [1]: 84%; HLM % Remaining@ 30 Min [2]: 100%
6 | Oc1c(C(Nc2cc(Cl)ccn2)c2ccc(C(F)(F)F)cc2F)ccc2cccnc12 (centres unmarked) [AD4-13046] | 0.16 | 0.12 |  | 
7 | Oc1c(C(Nc2cc(Cl)ccn2)c2ccc(C(F)(F)F)c(F)c2)ccc2cccnc12 (centres unmarked) [AD4-13048] | 0.18 | 0.17 |  | 
8 | Oc1c(C(Nc2ccc(Cl)cn2)c2cc(C(F)(F)F)ccc2Cl)ccc2cccnc12 (centres unmarked) [AD4-13052] | 0.13 | 0.24 |  | 
9 | Oc1c(C(Nc2cc(Cl)ccn2)c2cc(C(F)(F)F)ccc2Cl)ccc2cccnc12 (centres unmarked) [AD4-13060] | 0.19 | 0.58 |  | 
10 | Cc1cccc(NC(c2ccc(Cl)c(Cl)c2)c2cc(Cl)c3cccnc3c2O)n1 (centres unmarked) [AD4-13081] |  |  |  | IC50 (A549 cells; [4]): 0.17 µM; IC50 (H1975 cells; NCI-H1975, MTT, 72 hours): 0.33 µM; IC50 (HT-29 cells; [5]): 6.2 µM
11 | Cc1cccc(NC(c2cc(Cl)ccc2Cl)c2ccc3ccc(C)nc3c2O)n1 (centres unmarked) [AD4-13090] |  |  |  | IC50 (A549 cells; [4]): 0.16 µM; IC50 (H1975 cells; NCI-H1975, MTT, 72 hours): 1.3 µM; IC50 (HT-29 cells; [5]): 3.7 µM
12 | Cc1ccnc(NC(c2ccc3cccnc3c2O)c2c(F)c(F)c(OCC(F)(F)F)c(F)c2F)c1 (centres unmarked) [AD4-13092] | 0.16 | 0.21 | 3.9 | 
13 | Cc1cc(Cl)cnc1NC(c1ccc(Cl)c(Cl)c1)c1ccc2cccnc2c1O (centres unmarked) [AD4-13119] | 0.18 | 0.12 | 1.5 | 
14 | Cc1cc(NC(c2ccc(C(F)(F)F)cc2)c2ccc3cccnc3c2O)ncc1Cl (centres unmarked) [AD4-13121] | 0.18 | 0.33 | 1.8 | 
15 | Cc1cc(NC(c2ccc(Cl)cc2Cl)c2ccc3cccnc3c2O)ncc1Cl (centres unmarked) [AD4-13123] | 0.12 | 0.36 |  | MLM % Remaining@ 30 Min [1]: 30%; HLM % Remaining@ 30 Min [2]: 84%
16 | Cc1cc(NC(c2ccc(C(F)(F)F)cc2C(F)(F)F)c2ccc3cccnc3c2O)ncc1Cl (centres unmarked) [AD4-13124] | 0.1 | 0.97 | 1.5 | IC50 (A549 cells; [7]): ≤ 0.1 µM
17 | Cc1cc(Cl)cnc1NC(c1ccc2cccnc2c1O)c1c(F)cccc1Cl (centres unmarked) [AD4-13135] | 0.18 | 0.21 | 0.79 | 
18 | Oc1c(C(Nc2ncc(F)cc2F)c2c(Cl)cccc2Cl)ccc2cccnc12 (centres unmarked) [AD4-13138] | 0.17 | 0.3 | 1.1 | 
19 | Cc1nc(NC(c2cc(Cl)cc(Cl)c2Cl)c2ccc3cccnc3c2O)c(Cl)cc1Cl (centres unmarked) [AD4-13213] | 0.16 |  | 5.4 | 
20 | COc1cc(Cl)cnc1NC(c1cc(Cl)cc(Cl)c1)c1ccc2cccnc2c1O (centres unmarked) [AD4-13216] | 0.12 |  | 1.6 | 
21 | CCc1cc(Cl)cnc1NC(c1ccc(Cl)cc1Cl)c1ccc2cccnc2c1O (centres unmarked) [AD4-13217] | 0.12 |  | 0.96 | 
22 | CCc1c(Cl)cnc(NC(c2ccc(Cl)cc2Cl)c2ccc3cccnc3c2O)c1F (centres unmarked) [AD4-13218] | 0.086 |  | 0.92 | IC50 (A549 cells; [7]): ≤ 0.1 µM
23 | Cc1nc(NC(c2cc(Cl)cc(Cl)c2)c2ccc3cccnc3c2O)c(Cl)cc1Cl (centres unmarked) [AD4-13223] | 0.11 |  | 2.5 | 
24 | CS(=O)(=O)CCNCc1ccc(-c2ccc3ncnc(Nc4ccc(OCc5cccc(F)c5)c(Cl)c4)c3c2)o1 [Tykerb, reference compound] |  |  |  | IC50 (HT-29 cells; Homo sapiens, HT-29, 48 h, read-out: IC50, Comparison of Incubation Times in HT-29 Cell Proliferation Assay): 2.7 µM; IC50 (HT-29 cells; Homo sapiens, HT-29, 72 h, read-out: IC50, Comparison of Incubation Times in HT-29 Cell Proliferation Assay): 2.3 µM; IC50 (HT-29 cells; Homo sapiens, HT-29, read-out: HT-29 Cell Proliferation Assay Results (IC50)): 5 µM; IC50 (HT-29 cells; Homo sapiens, HT-29, read-out: IC50 from dose-response curves of FIG. 11, HT-29 cells): 2.7 µM; IC50 (HT-29 cells; read-out: HT-29 Cell Proliferation Assay Results (IC50)): 5.1 µM and 8.5 µM and 9.2 µM; IC50 (HT-29 cells; read-out: IC50, Comparison of Incubation Times in HT-29 Cell Proliferation Assay): 4.4 µM and 4.2 µM
